Measurements: patent US5968954A, “2-aminoindan compounds as 5HT1B antagonists” (Adir et Compagnie, priority 1997, dated 1999)

Experiments:
[1] = tested on: GR46611-induced hypothermia (prototype agonist 5HT1B) in the guinea-pig; assay: Hypothermia test in the guinea-pig; format: in vivo; conditions: for ΔT° C. (at 90 minutes): mean ± s.e.m., N ≥ 6
Text: Using the hypothermia test on the guinea-pig (M. Stingle et al., J. of Pychopharmacology, 1994. 8, 14) it was possible to determine the agonist or antagonist nature of the products of the invention.
Hypothermia Test in the Guinea-Pig
The guinea-pigs are kept in batteries of three, with free access to food and water, for one week before entering the study. One hour before each experiment, the guinea-pigs are placed in individual cages with free access to water. They are put back in their respective batteries at the end of each experiment. The temperature measurements are carried out using a digital thermometer and a rectal probe. Each guinea-pig is weighed, its base body temperature is taken and then the compound of the present invention to be evaluated is injected i.p. or p.o. In the case of an agonist, the body temperature of each guinea-pig is taken every 30 minutes for 2 hours.
In the case of an antagonist, 15 minutes after its injection each guinea-pig is injected again i.p. with the prototype agonist 5HT1B : GR46611 (5 mg/kg). The temperature is then taken every 30 minutes for 2 hours.
The criterion used for evaluation is the difference in temperature at a given time in relation to the base temperature. For each dose of product and for each time (t30, t60, t90, t120) the mean and the standard error of the mean are calculated.

[2] = tested on: extracellular concentration of serotonin in frontal cortex; assay: Microdialysis experiment in rats (frontal cortex, extracellular serotonin); format: in vivo; conditions: rat frontal cortex, M ± s.e.m.
Text: Carried out in the frontal cortex, these tests make it possible, in the case where the products cause an increase in the release of serotonin, to envisage their use for depression, impulsive disorders and obesity. If they cause a decrease in the release of serotonin they will be beneficial in the treatment of anxiety, panic attacks, sleep problems, cognitive problems and drug abuse problems. Finally, if they produce an increase in dopamine and/or noradrenalin, they will be beneficial in the treatment of schizophrenia and, as above, in the treatment of depression and cognitive problems.
Microdialysis Experiment in Rats
The rats are anaesthetised with pentobarbital (60 mg/kg i.p.). They are placed in a Kopf stereotaxic apparatus and the cannula guide is implanted in the frontal cortex cingulum in accordance with the coordinates described as follows in the Paxinos and Watson atlas (1982): AP:+2.2, L:±0.6, DV:-0.2. The rats are placed in separate cages and are not used in dialysis until 5 days later. On the day of dialysis, the probe is slowly inserted and maintained in its position. […] Simultaneous quantification of dopamine, norepinephrine and serotonin is carried out as follows: 20 μl of dialysis samples are diluted with 20 μl of mobile phase (NaH2 PO4 : 75 mM, EDTA: 20 μM, sodium 1-decanesulphonate: 1 mM, methanol: 17.5%, triethylamine: 0.01%, pH: 5.70) and 33 μl are analysed by HPLC with an inverse phase column (Hypersil ODS 5 μm, C18, 150×4.6 mm, Thermo Separation Products, Les Ulis, France) thermostatically controlled at 45° C. and quantified by way of a coulometric detector. […]
M±s.e.m.=mean of the effect all times merged after administration of the products±standard error of the mean, and n=number of animals. The quantities of the neurotransmitters are expressed as a function of the mean of the three base values before administration of the products and are defined as 0%. […] The reversion of the decrease of the extracellular concentration of serotonin produced by GR 46611 is evaluated statistically by an analysis of variance with drugs as between factor, F (1,25)=26.5, P<0.01.

5HT1B receptor = biological target: T1, 5HT1B receptor (Cavia porcellus, UniProt O08892); assay: 5-HT1B binding ([3H]-GR 125743, guinea-pig striatal membranes); conditions: [3H]-GR 125743 1 nM, guinea-pig striata membranes; pKi = -log Ki
T1 construct: After the dissection of guinea-pig brains, the extracted striata are frozen; from tissue; host or cells: guinea-pig striatum membranes
Experimental: a) Preparation of the Membranes
After the dissection of guinea-pig brains, the extracted striata are frozen and then homogenised in 20 volumes (weight/volume) of 50 mM tris-HCl (pH 7.7 at room temperature) containing 4 mM CaCl2 and 0.1% ascorbic acid, and centrifuged at 48,000 g for 25 minutes at 4° C. The supernatant is separated and the precipitate is resuspended in the same volume of buffer before being incubated at 37° C. for 15 minutes in order to extract the endogenous serotonin. Finally, the suspension is centrifuged at 48,000 g for 25 minutes at 4° C. and the precipitate is resuspended in 80 volumes of buffer that contains 10 μM pargyline. […]
The data are analysed by non-linear regression using the PRISM programme (Graphpad Software Inc., San Diego, Calif.) in order to determine the Kd values (dissocation constant of the radioligand), the Bmax values (maximum number of sites) for the saturation experiments and the IC50 values (50% inhibiting concentration) and the Hill number for the competition experiments. The inhibition constant (Ki) is calculated according to the Cheng-Prussof equation: Ki =IC50 /1+L/Kd wherein L represents the concentration of the radioligand. The results are expressed as pKi =-log Ki.

5HT1A receptor = biological target: T2, 5HT1A receptor (Rattus norvegicus, UniProt P19327); assay: 5HT1A binding; conditions: methods known from the literature; read-out: pKi 5HT1A receptor (converted)
T2 sequence (P19327 1-422): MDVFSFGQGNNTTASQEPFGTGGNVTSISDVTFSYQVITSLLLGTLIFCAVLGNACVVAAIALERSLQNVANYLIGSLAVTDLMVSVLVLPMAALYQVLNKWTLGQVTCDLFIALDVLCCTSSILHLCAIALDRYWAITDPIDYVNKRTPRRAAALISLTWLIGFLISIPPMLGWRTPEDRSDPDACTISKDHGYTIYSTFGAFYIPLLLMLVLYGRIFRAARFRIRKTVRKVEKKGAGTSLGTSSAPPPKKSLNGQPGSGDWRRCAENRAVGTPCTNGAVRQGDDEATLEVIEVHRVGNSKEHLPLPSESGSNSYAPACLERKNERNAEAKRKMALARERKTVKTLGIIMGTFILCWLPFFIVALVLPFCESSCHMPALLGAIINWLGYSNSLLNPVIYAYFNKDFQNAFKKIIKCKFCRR
Experimental: The 5HT1A receptor binding studies were carried out according to methods known and described in the literature (cf. S. J. Peroutka, J. Neurochem., 1986, 47, 529-40, M. J. Millan, J. Pharmacol. Exp. Ther., 1994, 268, 337-52). The results are also expressed as pKi. The compounds of the present invention have a very low affinity for the 5HT1A receptor.

T1 sequence (O08892 whole entry): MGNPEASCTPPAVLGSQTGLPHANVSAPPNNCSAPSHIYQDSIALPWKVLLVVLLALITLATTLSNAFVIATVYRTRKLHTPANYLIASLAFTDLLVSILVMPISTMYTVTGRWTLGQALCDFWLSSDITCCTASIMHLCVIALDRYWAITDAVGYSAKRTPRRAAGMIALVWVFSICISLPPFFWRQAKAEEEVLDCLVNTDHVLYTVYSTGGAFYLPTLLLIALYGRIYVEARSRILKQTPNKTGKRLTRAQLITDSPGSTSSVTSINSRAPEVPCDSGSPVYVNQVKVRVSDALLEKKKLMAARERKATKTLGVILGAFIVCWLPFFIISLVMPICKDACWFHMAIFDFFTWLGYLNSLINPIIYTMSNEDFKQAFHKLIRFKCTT

c1ccc2c(c1)CC(NC1CCN(c3cccc4c3OCCO4)CC1)C2 [Example 1, 1-(2,3-dihydro[1,4]benzodioxin-5-yl)-4-[N-(indan-2-yl)amino]piperidine]
ΔT° C. (at 90 minutes) ([1]; Product of Example 1 0.04 mg/kg i.p. then GR 46611 5 mg/kg i.p.): -0.82 ± 0.30 °C | ΔT° C. (at 90 minutes) ([1]; Product of Example 1 0.16 mg/kg i.p. then GR 46611 5 mg/kg i.p.): -0.75 ± 0.22 °C | agonist or antagonist nature ([1]; hypothermia test, i.p.): acts as an antagonist | extracellular serotonin, mean effect all times merged relative to base values (0%) ([2]; Product of Example 1 10.0 mg/kg s.c. + GR 46611 10.0 mg/kg s.c. 20 minutes later): +0.7 ± 3.4% | extracellular serotonin, mean effect all times merged relative to base values (0%) ([2]; Product of Example 1 10.0 mg/kg s.c. + Vehicle): -9.5 ± 3.7%

c1cc2c(c(N3CCC(NC4Cc5cc6c(cc5C4)OCO6)CC3)c1)OCCO2 [Example 3, 1-(2,3-dihydro[1,4]benzodioxin-5-yl)-4-[N-(5,6-methylenedioxyindan-2-yl)amino]-piperidine]
Ki (5HT1B receptor): 3.16 nM | Ki (5HT1A receptor): 631 nM

COc1ccc(CNC(=O)C=Cc2ccc3[nH]cc(CCN(C)C)c3c2)cc1 [GR 46611, reference compound]
ΔT° C. (at 90 minutes) ([1]; Vehicle i.p. then GR 46611 5 mg/kg i.p.): -1.04 ± 0.15 °C | extracellular serotonin, mean effect all times merged relative to base values (0%) ([2]; Vehicle + GR 46611 10.0 mg/kg s.c.): -40.7 ± 2.3%
